Values after ≈ are worked out from the molar mass of the structure shown. Active and inactive are the calls of the source. The calls are words filed in the database; no cut-off is given here.
Legend:
[1] = system: Pseudomonas aeruginosa; assay: Antimicrobial activity against Pseudomonas aeruginosa MTCC 4673 at 50 ug/mL after 12 hrs by well diffusion method; assay type: functional; settings: for zone of inhibition at 50 µg/mL: MTCC 4673, 12 h, read-out: DIZ
[2] = system: Pseudomonas aeruginosa; assay: Antimicrobial activity against Pseudomonas aeruginosa MTCC 4673 at 100 ug/mL after 12 hrs by well diffusion method; assay type: functional; settings: for zone of inhibition at 100 µg/mL: MTCC 4673, 12 h, read-out: DIZ
[3] = system: Candida albicans; assay: Antimicrobial activity against Candida albicans MTCC 183 at 50 ug/mL after 12 hrs by well diffusion method; assay type: functional
[4] = system: Mycolicibacterium smegmatis; assay: Antimicrobial activity against Mycobacterium smegmatis MTCC 943 at 50 ug/mL after 12 hrs by well diffusion method; assay type: functional; settings: for zone of inhibition at 50 µg/mL: MTCC 943, 12 h, read-out: DIZ
[5] = system: Staphylococcus aureus; settings: MTCC 3160, 50 ug/mL
Description: Antimicrobial activity against Staphylococcus aureus MTCC 3160 at 50 ug/mL after 12 hrs by well diffusion method

[6] = system: Mycolicibacterium smegmatis; assay: Antimicrobial activity against Mycobacterium smegmatis MTCC 943 at 100 ug/mL after 12 hrs by well diffusion method; assay type: functional; settings: for zone of inhibition at 100 µg/mL: MTCC 943, 12 h, read-out: DIZ
[7] = system: Salmonella typhimurium; assay: Antimicrobial activity against Salmonella typhimurium MTCC 3732 at 50 ug/mL after 12 hrs by well diffusion method; assay type: functional; settings: for diameter of the inhibition zone (DIZ): Salmonella enterica subsp. enterica serovar Typhimurium
[8] = system: Staphylococcus aureus; assay: Antimicrobial activity against Staphylococcus aureus MTCC 3160 at 100 ug/mL after 12 hrs by well diffusion method; assay type: functional; settings: for zone of inhibition at 100 µg/mL: MTCC 3160, 12 h, read-out: DIZ
[9] = system: Salmonella typhimurium; assay: Antimicrobial activity against Salmonella typhimurium MTCC 3732 at 100 ug/mL after 12 hrs by well diffusion method; assay type: functional; settings: for diameter of the inhibition zone (DIZ): Salmonella enterica subsp. enterica serovar Typhimurium
[10] = system: Candida albicans; assay: Antimicrobial activity against Candida albicans MTCC 183 at 100 ug/mL after 12 hrs by well diffusion method; assay type: functional; settings: for zone of inhibition at 100 µg/mL: MTCC 183, 12 h, read-out: DIZ
[11] = system: Staphylococcus aureus; assay: Antimicrobial activity against Staphylococcus aureus MTCC 3160 after 12 hrs by well diffusion method; assay type: functional; settings: MTCC 3160, 12 h
[12] = system: Mycolicibacterium smegmatis; assay: Antimicrobial activity against Mycobacterium smegmatis MTCC 943 after 12 hrs by well diffusion method; assay type: functional; settings: MTCC 943, 12 h
[13] = system: Pseudomonas aeruginosa; assay: Antimicrobial activity against Pseudomonas aeruginosa MTCC 4673 after 12 hrs by well diffusion method; assay type: functional; settings: MTCC 4673, 12 h
[14] = system: Salmonella typhimurium; assay: Antimicrobial activity against Salmonella typhimurium MTCC 3732 after 12 hrs by well diffusion method; assay type: functional, Salmonella enterica subsp. enterica serovar Typhimurium; settings: Salmonella enterica, MTCC 3732, 12 h
[15] = system: Candida albicans; assay: Antimicrobial activity against Candida albicans MTCC 183 after 12 hrs by well diffusion method; assay type: functional; settings: MTCC 183, 12 h
[16] = Salmonella enterica, MTCC 3732, 12 h, read-out: DIZ

MIC [11] | MIC [12] | MIC [13] | MIC [14] | MIC [15] | Compound | diameter of the inhibition zone (DIZ) [1] | diameter of the inhibition zone (DIZ) [2] | diameter of the inhibition zone (DIZ) [3] | diameter of the inhibition zone (DIZ) [4] | DIZ [5] | diameter of the inhibition zone (DIZ) [6] | diameter of the inhibition zone (DIZ) [7] | diameter of the inhibition zone (DIZ) [9] | zone of inhibition at 50 µg/mL [1] | zone of inhibition at 100 µg/mL [2] | zone of inhibition at 100 µg/mL [6] | zone of inhibition at 100 µg/mL [8] | zone of inhibition at 100 µg/mL [10] | further results
 |  |  |  |  | CCOC(=O)c1cn(Cc2ccc(C#N)cc2)c2c(C(F)(F)F)cccc2c1=O | inactive | inactive | inactive | inactive | inactive | inactive | inactive | inactive |  |  |  |  |  | diameter of the inhibition zone (DIZ) [8]: inactive; diameter of the inhibition zone (DIZ) [10]: inactive
100 µg/mL (≈ 240 µM) | 25 µg/mL (≈ 60.1 µM) | 25 µg/mL (≈ 60.1 µM) | > 100 µg/mL | 50 µg/mL (≈ 120 µM) | O=C(O)c1cn(Cc2ccc(Cl)cc2Cl)c2c(C(F)(F)F)cccc2c1=O |  |  |  |  | inactive |  | inactive | inactive | 13.6 mm | 14 mm | 12 mm | 9 mm | 9 mm | zone of inhibition at 50 µg/mL ([3]; MTCC 183, 12 h, read-out: DIZ): 7 mm; zone of inhibition at 50 µg/mL [4]: 11 mm
100 µg/mL (≈ 232 µM) | 25 µg/mL (≈ 58.1 µM) | 25 µg/mL (≈ 58.1 µM) | > 100 µg/mL | 100 µg/mL (≈ 232 µM) | NNC(=O)c1cn(Cc2ccc(Cl)cc2Cl)c2cc(C(F)(F)F)ccc2c1=O |  |  | inactive |  | inactive |  | inactive | inactive | 8 mm | 8 mm | 9 mm | 8 mm | 7 mm | zone of inhibition at 50 µg/mL [4]: 9 mm
100 µg/mL (≈ 240 µM) | > 100 µg/mL | > 100 µg/mL | > 100 µg/mL | 50 µg/mL (≈ 120 µM) | O=C(O)c1cn(Cc2ccc(Cl)cc2Cl)c2cc(C(F)(F)F)ccc2c1=O | inactive | inactive | inactive | inactive | inactive | inactive | inactive | inactive |  |  |  | 10 mm | 7 mm | 
100 µg/mL (≈ 309 µM) | 100 µg/mL (≈ 309 µM) | 50 µg/mL (≈ 155 µM) | 25 µg/mL (≈ 77.3 µM) | 100 µg/mL (≈ 309 µM) | C#CCn1cc(C(=O)OCC)c(=O)c2ccc(C(F)(F)F)cc21 |  |  | inactive | inactive | inactive |  |  |  | 7 mm | 8 mm | 9 mm | 9 mm | 8.33 mm | zone of inhibition at 50 µg/mL [7, 16]: 10.3 mm; zone of inhibition at 100 µg/mL [9, 16]: 11 mm
 |  |  |  |  | C#CCn1cc(C(=O)NN)c(=O)c2cccc(C(F)(F)F)c21 | inactive | inactive | inactive | inactive | inactive | inactive | inactive | inactive |  |  |  |  |  | diameter of the inhibition zone (DIZ) [8]: inactive; diameter of the inhibition zone (DIZ) [10]: inactive
100 µg/mL (≈ 269 µM) | > 100 µg/mL | 25 µg/mL (≈ 67.1 µM) | > 100 µg/mL | 100 µg/mL (≈ 269 µM) | N#Cc1ccc(Cn2cc(C(=O)O)c(=O)c3cccc(C(F)(F)F)c32)cc1 |  |  | inactive | inactive | inactive | inactive | inactive | inactive | 8 mm | 8 mm |  | 8 mm | 8 mm | 
